Measured values published in PMC6364417, “Kinase inhibitor library screening identifies synergistic drug combinations effective in sensitive and resistant melanoma cells” (Journal of Experimental & Clinical Cancer Research : CR, 2019).

What was measured:
Experiment in all cases: Kinase inhibitor library screening, PrestoBlue cell viability, 1 or 10 μM, 72 h
[1] = test system: A375-GP cells (Dabrafenib-resistant)
Protocol: (§1) After 72 h of treatment, cell viability was assessed using the PrestoBlue Cell Viability Reagent (ThermoFisher Scientific). Measurements were performed with the CLARIOstar Monochromator microplate reader (BMG Labtech).
(§2) Kinase inhibitor library screening. […] Each cell line was treated in its sensitive form (parental), and also as 2 resistant derivatives, which were made resistant to either Vemurafenib (XP) or Dabrafenib (GP). Drugs were added at 2 different concentrations, 1 and 10 μM, for 72 h and cell viability was assessed using the PrestoBlue Cell Viability assay. Results are depicted as % viability compared to untreated cells. Each cell line was analyzed at least in duplicate. […] (XLSX 95 kb)

IGR37 cells (parental) = conditions: for Cell viability in kinase inhibitor library screening, IGR37 Parental, 1μΜ / Cell viability in kinase inhibitor library screening, IGR37 Parental, 10μΜ: 72 h, in %
Protocol: as §1, §2

A375 cells (parental) = test system: A375 cells (parental)
Protocol: as §1, §2

[2] = test system: 501Mel-XP cells (Vemurafenib-resistant); conditions: 72 h; for Cell viability in kinase inhibitor library screening, 501Mel XP, 1μΜ / Cell viability in kinase inhibitor library screening, 501Mel XP, 10μΜ: in %
Protocol: as §1, §2

[3] = test system: IGR37-GP cells (Dabrafenib-resistant); conditions: for Cell viability in kinase inhibitor library screening, IGR37 GP, 10μΜ / Cell viability in kinase inhibitor library screening, IGR37 GP, 1μΜ: 72 h; for Cell viability in kinase inhibitor library screening, IGR37 GP, 1μΜ: in %
Protocol: as §1, §2

[4] = test system: 501Mel-GP cells (Dabrafenib-resistant); conditions: 72 h; for Cell viability in kinase inhibitor library screening, 501Mel GP, 1μΜ / Cell viability in kinase inhibitor library screening, 501Mel GP, 10μΜ: in %
Protocol: as §1, §2

[5] = test system: IGR37-XP cells (Vemurafenib-resistant)
Protocol: as §1, §2

[6] = test system: A375-XP cells (Vemurafenib-resistant); conditions: for Cell viability in kinase inhibitor library screening, A375 XP, 1μΜ / Cell viability in kinase inhibitor library screening, A375 XP, 10μΜ: 72 h
Protocol: as §1, §2

501Mel cells (parental) = conditions: 72 h
Protocol: as §1, §2

SMILES | Cell viability in kinase inhibitor library screening, A375 GP, 10μΜ ([1]; A375 GP, 72 h) | Cell viability in kinase inhibitor library screening, IGR37 Parental, 1μΜ (IGR37 cells (parental)) | Cell viability in kinase inhibitor library screening, IGR37 Parental, 10μΜ (IGR37 cells (parental)) | Cell viability in kinase inhibitor library screening, A375 Parental, 1μΜ (A375 cells (parental); A375 Parental, 72 h) | Cell viability in kinase inhibitor library screening, 501Mel XP, 1μΜ [2] | Cell viability in kinase inhibitor library screening, 501Mel XP, 10μΜ [2] | Cell viability in kinase inhibitor library screening, IGR37 GP, 10μΜ [3] [%] | Cell viability in kinase inhibitor library screening, IGR37 GP, 1μΜ [3] | Cell viability in kinase inhibitor library screening, 501Mel GP, 1μΜ [4] | Cell viability in kinase inhibitor library screening, 501Mel GP, 10μΜ [4] | Cell viability in kinase inhibitor library screening, IGR37 XP, 10μΜ ([5]; IGR37 XP, 72 h) [%] | Cell viability in kinase inhibitor library screening, A375 XP, 1μΜ [6] | Cell viability in kinase inhibitor library screening, A375 XP, 10μΜ [6] | Cell viability in kinase inhibitor library screening, 501Mel Parental, 10μΜ (501Mel cells (parental); 501Mel Parental, in %) | other results
O=C(NOC[C@H](O)CO)c1ccc(F)c(F)c1Nc1ccc(I)cc1F [PD0325901] |  |  |  |  |  |  |  |  |  |  |  |  |  |  | viability at 1 µM ([1]; Homo sapiens, A-375, 72 h, read-out: cell viability, A375 GP, 1μΜ): 12.6%; viability at 10 µM ([1]; Homo sapiens, A-375, 72 h, read-out: cell viability, A375 GP, 10μΜ): 13.1%; viability at 1 µM (IGR37 cells (parental); Homo sapiens, IGR-37, 72 h, read-out: cell viability, IGR37 Parental, 1μΜ): 34.5%; viability at 10 µM (IGR37 cells (parental); Homo sapiens, IGR-37, 72 h, read-out: cell viability, IGR37 Parental, 10μΜ): 35.2%; viability at 1 µM (A375 cells (parental); Homo sapiens, A-375, 72 h, read-out: cell viability, A375 Parental, 1μΜ): 17.6%; viability at 10 µM (A375 cells (parental); Homo sapiens, A-375, 72 h, read-out: cell viability, A375 Parental, 10μΜ): 17.5%; viability at 1 µM ([2]; Homo sapiens, read-out: cell viability, 501Mel XP, 1μΜ): 72%; viability at 10 µM ([2]; Homo sapiens, read-out: cell viability, 501Mel XP, 10μΜ): 54.1%; viability at 1 µM ([3]; Homo sapiens, IGR-37, 72 h, read-out: cell viability, IGR37 GP, 1μΜ): 76.5%; viability at 10 µM ([3]; Homo sapiens, IGR-37, 72 h, read-out: cell viability, IGR37 GP, 10μΜ): 46.2%; viability at 1 µM ([4]; Homo sapiens, read-out: cell viability, 501Mel GP, 1μΜ): 87.8%; viability at 10 µM ([4]; Homo sapiens, read-out: cell viability, 501Mel GP, 10μΜ): 66.1%; viability at 1 µM ([5]; Homo sapiens, IGR-37, 72 h, read-out: cell viability, IGR37 XP, 1μΜ): 58.6%; viability at 10 µM ([5]; Homo sapiens, IGR-37, 72 h, read-out: cell viability, IGR37 XP, 10μΜ): 15.7%; viability at 1 µM ([6]; Homo sapiens, A-375, 72 h, read-out: cell viability, A375 XP, 1μΜ): 11.5%; viability at 10 µM ([6]; Homo sapiens, A-375, 72 h, read-out: cell viability, A375 XP, 10μΜ): 11.4%; viability at 1 µM (501Mel cells (parental); Homo sapiens, read-out: cell viability, 501Mel Parental, 1μΜ): 56.4%; viability at 10 µM (501Mel cells (parental); Homo sapiens, read-out: cell viability, 501Mel Parental, 10μΜ): 64.3%
COc1ccc(-c2ccc3c(N4CCOC[C@@H]4C)nc(N4CCOC[C@@H]4C)nc3n2)cc1CO [AZD8055] | 16.6 | 29.8 | 25.2 | 23.1 | 13.9 | 4.6 | 29.5 | 45.1 | 22.1 | 11.9 | 12.5 | 21.6 | 17.3 | 8.1 | Cell viability in kinase inhibitor library screening, A375 GP, 1μΜ ([1]; A375 GP, 1μΜ, 72 h): 25.5; Cell viability in kinase inhibitor library screening, A375 Parental, 10μΜ (A375 cells (parental); A375 Parental, 10μΜ, 72 h): 19.2; Cell viability in kinase inhibitor library screening, IGR37 XP, 1μΜ ([5]; IGR37 XP, 1μΜ, 72 h, in %): 34.7; Cell viability in kinase inhibitor library screening, 501Mel Parental, 1μΜ (501Mel cells (parental); 501Mel Parental, 1μΜ, in %): 17.3
CN1CCN(c2nc(C3=C(c4c[nH]c5ccccc45)C(=O)NC3=O)c3ccccc3n2)CC1 [Sotrastaurin (AEB071)] | 88.5 | 108.5 | 95.3 | 108.3 | 96.4 | 77.9 | 89.1 | 96.8 | 105.7 | 91.8 | 78.1 | 102.8 | 96.9 | 95.7 | 
